Measured values from ChEMBL document CHEMBL3885881, “DrugMatrix”.

Species: Rattus norvegicus
Assay: DrugMatrix - Regimen: Daily Repeat
Assay type: toxicity, organism-based, Sprague-Dawley
Design: regimen Daily Repeat, gender Male, age 6-8 weeks
Details: in vivo, po, 0 mg/kg, route oral GAVAGE, dose level Control, vehicle 100 % WATER; for ABSOLUTE BASOPHIL / ABSOLUTE EOSINOPHIL / ABSOLUTE LYMPHOCYTE / ABSOLUTE MONOCYTE / ABSOLUTE SEGMENTED NEUTROPHIL / BASOPHIL / EOSINOPHIL / ERYTHROCYTE COUNT / HEMATOCRIT / HEMOGLOBIN / LEUKOCYTE COUNT / LYMPHOCYTE / MEAN CORPUSCULAR HEMOGLOBIN / MEAN CORPUSCULAR VOLUME / MONOCYTE / NEUTROPHIL / NUCLEATED RED BLOOD CELLS / PLATELET COUNT: tissue Blood; for ALANINE AMINOTRANSFERASE / ALBUMIN / ALKALINE PHOSPHATASE / ASPARTATE AMINOTRANSFERASE / BLOOD UREA NITROGEN / CARBON DIOXIDE / CHLORIDE / CHOLESTEROL / CREATINE PHOSPHOKINASE / CREATININE / GLUCOSE / LACTATE DEHYDROGENASE / LIPASE / PHOSPHORUS / POTASSIUM / SODIUM / TOTAL BILIRUBIN / TOTAL PROTEIN / URIC ACID: tissue Plasma

CC(C)(C)CC(C)(C)c1ccc(OCCOCC[N+](C)(C)Cc2ccccc2)cc1.[Cl-] [BENZETHONIUM CHLORIDE]
ABSOLUTE BASOPHIL (72 h, time 3 day): 0 CELLS/uL | ABSOLUTE EOSINOPHIL (72 h, time 3 day): 20.17 CELLS/uL | ABSOLUTE LYMPHOCYTE (72 h, time 3 day): 12371.67 CELLS/uL | ABSOLUTE MONOCYTE (72 h, time 3 day): 166 CELLS/uL | ABSOLUTE SEGMENTED NEUTROPHIL (72 h, time 3 day): 1292.17 CELLS/uL | BASOPHIL (72 h, time 3 day): 0% | EOSINOPHIL (72 h, time 3 day): 0.17% | ERYTHROCYTE COUNT (72 h, time 3 day): 5.46 x10E6/uL | HEMATOCRIT (72 h, time 3 day): 34.38% | HEMOGLOBIN (72 h, time 3 day): 13.32 G/DL | LEUKOCYTE COUNT (72 h, time 3 day): 13.85 x10E3/uL | LYMPHOCYTE (72 h, time 3 day): 88.5% | MEAN CORPUSCULAR HEMOGLOBIN (72 h, time 3 day): 24.42 pg | MEAN CORPUSCULAR VOLUME (72 h, time 3 day): 63.07 fL | MONOCYTE (72 h, time 3 day): 1.17% | NEUTROPHIL (72 h, time 3 day): 10.17% | NUCLEATED RED BLOOD CELLS (72 h, time 3 day): 0.17 /100WBC | PLATELET COUNT (72 h, time 3 day): 1193.5 x10E3/uL | ALANINE AMINOTRANSFERASE (72 h, time 3 day): 54.5 u/L | ALBUMIN (72 h, time 3 day): 4.02 G/DL | ALKALINE PHOSPHATASE (72 h, time 3 day): 346.5 u/L | ASPARTATE AMINOTRANSFERASE (72 h, time 3 day): 103.17 u/L | BLOOD UREA NITROGEN (72 h, time 3 day): 16.5 mg/dL | CARBON DIOXIDE (72 h, time 3 day): 29.83 mmol/L | CHLORIDE (72 h, time 3 day): 99.5 MEQ/L | CHOLESTEROL (72 h, time 3 day): 72.5 mg/dL | CREATINE PHOSPHOKINASE (72 h, time 3 day): 532.5 u/L | CREATININE (72 h, time 3 day): 0.18 mg/dL | GLUCOSE (72 h, time 3 day): 168.5 mg/dL | LACTATE DEHYDROGENASE (72 h, time 3 day): 536.5 u/L | LIPASE (72 h, time 3 day): 11.17 u/L | PHOSPHORUS (72 h, time 3 day): 11.48 mg/dL | POTASSIUM (72 h, time 3 day): 5.95 MEQ/L | SODIUM (72 h, time 3 day): 140.5 MEQ/L | TOTAL BILIRUBIN (72 h, time 3 day): 0.18 mg/dL | TOTAL PROTEIN (72 h, time 3 day): 5.77 G/DL | URIC ACID (72 h, time 3 day): 1.42 mg/dL | ABSOLUTE BASOPHIL (120 h, time 5 day): 0 CELLS/uL | ABSOLUTE EOSINOPHIL (120 h, time 5 day): 22.83 CELLS/uL | ABSOLUTE LYMPHOCYTE (120 h, time 5 day): 12202.83 CELLS/uL | ABSOLUTE MONOCYTE (120 h, time 5 day): 158 CELLS/uL | ABSOLUTE SEGMENTED NEUTROPHIL (120 h, time 5 day): 1283 CELLS/uL | BASOPHIL (120 h, time 5 day): 0% | EOSINOPHIL (120 h, time 5 day): 0.17% | ERYTHROCYTE COUNT (120 h, time 5 day): 5.88 x10E6/uL | HEMATOCRIT (120 h, time 5 day): 36.62% | HEMOGLOBIN (120 h, time 5 day): 14.07 G/DL | LEUKOCYTE COUNT (120 h, time 5 day): 13.67 x10E3/uL | LYMPHOCYTE (120 h, time 5 day): 89.5% | MEAN CORPUSCULAR HEMOGLOBIN (120 h, time 5 day): 23.95 pg | MEAN CORPUSCULAR VOLUME (120 h, time 5 day): 62.28 fL | MONOCYTE (120 h, time 5 day): 1.17% | NEUTROPHIL (120 h, time 5 day): 9.17% | NUCLEATED RED BLOOD CELLS (120 h, time 5 day): 0.17 /100WBC | PLATELET COUNT (120 h, time 5 day): 1198 x10E3/uL | ALANINE AMINOTRANSFERASE (120 h, time 5 day): 51 u/L | ALBUMIN (120 h, time 5 day): 4.3 G/DL | ALKALINE PHOSPHATASE (120 h, time 5 day): 343 u/L | ASPARTATE AMINOTRANSFERASE (120 h, time 5 day): 89.83 u/L | BLOOD UREA NITROGEN (120 h, time 5 day): 17.67 mg/dL | CARBON DIOXIDE (120 h, time 5 day): 27.17 mmol/L | CHLORIDE (120 h, time 5 day): 98.33 MEQ/L | CHOLESTEROL (120 h, time 5 day): 82.5 mg/dL | CREATINE PHOSPHOKINASE (120 h, time 5 day): 533.33 u/L | CREATININE (120 h, time 5 day): 0.18 mg/dL | GLUCOSE (120 h, time 5 day): 152.67 mg/dL | LACTATE DEHYDROGENASE (120 h, time 5 day): 220.33 u/L | LIPASE (120 h, time 5 day): 11.5 u/L | PHOSPHORUS (120 h, time 5 day): 11.25 mg/dL | POTASSIUM (120 h, time 5 day): 6.29 MEQ/L | SODIUM (120 h, time 5 day): 140.53 MEQ/L | TOTAL BILIRUBIN (120 h, time 5 day): 0.22 mg/dL | TOTAL PROTEIN (120 h, time 5 day): 6.12 G/DL | URIC ACID (120 h, time 5 day): 1.42 mg/dL
